In ChEMBL document CHEMBL1127350, “The squalestatins: novel inhibitors of squalene synthase. Enzyme inhibitory activities and in vivo evaluation of C1-modified analogues” (J Med Chem, 1994):
In brackets after ≈: the same amount, converted by molar mass. Several values for one entry are separate records, joined by “and”; a condition that tells them apart may be missing. Equal values may be shown once.

What was measured:
[1] = system: Aspergillus niger; assay: Compound was tested for an antifungal whole cell assay to obtain minimum inhibitory concentration against Aspergillus niger 48238; format: functional
[2] = system: Cryptococcus neoformans; assay: Compound was tested for an antifungal whole cell assay to obtain minimum inhibitory concentration against Cryptococcus neoformans 2867E; format: functional
[3] = target: T1, Squalene synthase (Rattus norvegicus, UniProt Q02769); assay: Inhibition of juvenile male rat liver microsomal squalene synthase
T1 sequence (Q02769 whole entry): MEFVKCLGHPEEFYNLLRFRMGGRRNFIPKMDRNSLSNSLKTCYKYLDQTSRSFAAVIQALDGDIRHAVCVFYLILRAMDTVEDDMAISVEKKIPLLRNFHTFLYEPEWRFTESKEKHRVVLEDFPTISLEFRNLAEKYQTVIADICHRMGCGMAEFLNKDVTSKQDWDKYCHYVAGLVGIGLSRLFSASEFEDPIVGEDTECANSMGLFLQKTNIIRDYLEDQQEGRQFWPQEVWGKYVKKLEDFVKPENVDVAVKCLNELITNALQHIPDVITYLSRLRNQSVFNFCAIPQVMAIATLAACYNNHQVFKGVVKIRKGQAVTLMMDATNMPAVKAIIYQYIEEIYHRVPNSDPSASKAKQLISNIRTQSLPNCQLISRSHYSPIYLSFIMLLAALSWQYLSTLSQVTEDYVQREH

[4] = system: Candida albicans; assay: Compound was tested for an antifungal whole cell assay to obtain minimum inhibitory concentration against Candida albicans C316; format: functional
[5] = Compound was tested on serum cholesterol levels in marmosets after 7 days at 1(mg/kg/day) intravenous administration in 6 animals; format: functional, Callitrichinae
[6] = Compound was tested on serum cholesterol levels in marmosets after 2 days at intravenous 1 (mg/kg) dose in 6 animals; format: functional, Callitrichinae
[7] = Compound was tested on serum cholesterol levels in marmosets after 3 days at intravenous 0.33 (mg/kg) dose in 6 animals; format: functional, Callitrichinae
[8] = Compound was tested on serum cholesterol levels in marmosets after 7 days at 1(mg/kg/day) intravenous administration in 8 animals; format: functional, Callitrichinae
[9] = (§1) Compound was tested on serum cholesterol levels in marmosets after 7 days at intravenous 0.11 (mg/kg) dose in 6 animals; format: functional, Callitrichinae
[10] = system: Rattus norvegicus; assay: Tested for inhibition of cholesterol biosynthesis by intravenous administration to rats; format: functional
[11] = as §1; format: functional, Callitrichinae; remark: listed apart in the source
[12] = Aspergillus niger, read-out: MIC
[13] = Cryptococcus neoformans, read-out: MIC
[14] = Candida albicans, read-out: MIC

| MIC [1, 12] | MIC [2, 13] | IC50 [3] | MIC [4, 14] | Compound | other results |
| --- | --- | --- | --- | --- | --- |
| 62 µg/mL (≈ 125 µM) | 62 µg/mL (≈ 125 µM) | 252 nM | 62 µg/mL (≈ 125 µM) | C=C(CC[C@]12O[C@H](C(=O)O)[C@@](O)(C(=O)O)[C@](C(=O)O)(O1)[C@H](O)[C@H]2O)[C@H](O)[C@@H](C)Cc1ccccc1 |  |
| 31 µg/mL (≈ 49 µM) | 2 µg/mL (≈ 3.16 µM) | 65 nM | 31 µg/mL (≈ 49 µM) | CC[C@H](C)C[C@H](C)/C=C/C(=O)O[C@@H]1[C@@H](O)[C@@]2(C/C=C(\C)CC(C)Cc3ccccc3)O[C@H](C(=O)O)[C@@](O)(C(=O)O)[C@]1(C(=O)O)O2 (single isomer, unassigned) |  |
| 125 µg/mL (≈ 259 µM) | 125 µg/mL (≈ 259 µM) | 415 nM | 125 µg/mL (≈ 259 µM) | CC(CC[C@]12O[C@H](C(=O)O)[C@@](O)(C(=O)O)[C@](C(=O)O)(O1)[C@H](O)[C@H]2O)C[C@@H](C)Cc1ccccc1 (stereo not given in full) |  |
|  |  | 165 nM |  | CC[C@H](C)C[C@H](C)CCC(=O)O[C@@H]1[C@@H](O)[C@@]2(CCC(C)[C@H](OC(C)=O)[C@@H](C)Cc3ccccc3)O[C@H](C(=O)O)[C@@](O)(C(=O)O)[C@]1(C(=O)O)O2 (stereo in doubt; 2f) | MIC [1]: 125 µg/mL (≈ 180 µM); MIC [2]: 4 µg/mL (≈ 5.76 µM); MIC [4]: 125 µg/mL (≈ 180 µM) |
| > 125 µg/mL | > 125 µg/mL |  | > 125 µg/mL | C=C(CC[C@]12O[C@H](C(=O)O)[C@@](O)(C(=O)O)[C@](C(=O)O)(O1)[C@H](O)[C@H]2O)[C@H](OC(C)=O)[C@@H](C)Cc1ccccc1 | Cholesterol reduction [5]: 56% |
| 16 µg/mL (≈ 25.3 µM) | 4 µg/mL (≈ 6.32 µM) | 32 nM | 31 µg/mL (≈ 49 µM) | CC[C@H](C)C[C@H](C)/C=C/C(=O)O[C@@H]1[C@@H](O)[C@@]2(CC/C(C)=C/[C@@H](C)Cc3ccccc3)O[C@H](C(=O)O)[C@@](O)(C(=O)O)[C@]1(C(=O)O)O2 |  |
| 1 µg/mL (≈ 1.44 µM) | 0.1 µg/mL (≈ 0.144 µM) | 13 nM | 8 µg/mL (≈ 11.5 µM) | C=C(CC[C@]12O[C@H](C(=O)O)[C@@](O)(C(=O)O)[C@](C(=O)O)(O1)[C@H](OC(=O)CC[C@@H](C)C[C@@H](C)CC)[C@H]2O)[C@H](OC(C)=O)[C@@H](C)Cc1ccccc1 | Cholesterol reduction [5]: 72% |
| 16 µg/mL (≈ 23.2 µM) | 0.5 µg/mL (≈ 0.724 µM) |  | 8 µg/mL (≈ 11.6 µM) | C=C(CC[C@]12O[C@H](C(=O)O)[C@@](O)(C(=O)O)[C@](C(=O)O)(O1)[C@H](OC(=O)/C=C/[C@@H](C)C[C@@H](C)CC)[C@H]2O)[C@H](OC(C)=O)[C@@H](C)Cc1ccccc1 | Cholesterol reduction [6]: 47% and 53% and 60%; Cholesterol reduction [7]: 53% and 63% and 62%; Cholesterol reduction [8]: 86%; Cholesterol reduction [9]: 37% and 41%; ED50 [10]: 0.1 mg/kg; Cholesterol reduction [11]: 39% |
| 31 µg/mL (≈ 44.7 µM) | 8 µg/mL (≈ 11.5 µM) | 22 nM | 125 µg/mL (≈ 180 µM) | CC[C@H](C)C[C@H](C)CCC(=O)O[C@@H]1[C@@H](O)[C@@]2(C/C=C(\C)[C@H](OC(C)=O)[C@@H](C)Cc3ccccc3)O[C@H](C(=O)O)[C@@](O)(C(=O)O)[C@]1(C(=O)O)O2 |  |
|  |  | 200 nM |  | C/C(=C\[C@@H](C)Cc1ccccc1)CC[C@]12O[C@H](C(=O)O)[C@@](O)(C(=O)O)[C@](C(=O)O)(O1)[C@H](O)[C@H]2O |  |
| 16 µg/mL (≈ 24.7 µM) | 1 µg/mL (≈ 1.54 µM) |  | 125 µg/mL (≈ 193 µM) | C=C(CC[C@]12O[C@H](C(=O)O)[C@@](O)(C(=O)O)[C@](C(=O)O)(O1)[C@H](OC(=O)/C=C/[C@@H](C)C[C@@H](C)CC)[C@H]2O)[C@H](O)[C@@H](C)Cc1ccccc1 | Cholesterol reduction [5]: 59% |
| 125 µg/mL (≈ 231 µM) | 125 µg/mL (≈ 231 µM) |  | 125 µg/mL (≈ 231 µM) | CC(=O)O[C@@H](C(C)CC[C@]12O[C@H](C(=O)O)[C@@](O)(C(=O)O)[C@](C(=O)O)(O1)[C@H](O)[C@H]2O)[C@@H](C)Cc1ccccc1 (stereo not given in full) |  |
| 16 µg/mL (≈ 25.1 µM) | 1 µg/mL (≈ 1.57 µM) |  | 31 µg/mL (≈ 48.7 µM) | CC[C@H](C)C[C@H](C)CCC(=O)O[C@@H]1[C@@H](O)[C@@]2(CCC(C)C[C@@H](C)Cc3ccccc3)O[C@H](C(=O)O)[C@@](O)(C(=O)O)[C@]1(C(=O)O)O2 (stereo not given in full) |  |
|  |  | 3 nM |  | CC[C@H](C)C[C@H](C)CCC(=O)O[C@@H]1[C@@H](O)[C@@]2(CCC(C)[C@H](OC(C)=O)[C@@H](C)Cc3ccccc3)O[C@H](C(=O)O)[C@@](O)(C(=O)O)[C@]1(C(=O)O)O2 (stereo in doubt; 2d) | MIC [1]: 8 µg/mL (≈ 11.5 µM); MIC [2]: 0.5 µg/mL (≈ 0.72 µM); MIC [4]: 16 µg/mL (≈ 23 µM) |
| 31 µg/mL (≈ 47.5 µM) | 8 µg/mL (≈ 12.3 µM) |  | 125 µg/mL (≈ 192 µM) | CC[C@H](C)C[C@H](C)CCC(=O)O[C@@H]1[C@@H](O)[C@@]2(CCC(C)[C@H](O)[C@@H](C)Cc3ccccc3)O[C@H](C(=O)O)[C@@](O)(C(=O)O)[C@]1(C(=O)O)O2 (stereo not given in full) |  |
